# Assay results as given in patent publication US8168231B2, “Antimicrobial composition useful for preserving wood” (Rohm and Haas Company, priority 2006, dated 2012).
# Where two headings read alike, the source gives them in different places.
# Assays:
# Format in all cases: cell-based
# [1] = tested on: Candida albicans (C. albicans—ATCC # 10231); assay: Synergy test, microtiter plate high resolution MIC assay (PDB medium); details: ppm AI; for MIC: Candida albicans, read-out: MIC of component acting alone (Ca or Cb)
# Text: (§1) One measure of synergism is the industrially accepted method described by Kull, F. C.; Eisman, P. C.; Sylwestrowicz, H. D. and Mayer, R. L., in Applied Microbiology 9:538-541 (1961), using the ratio determined by the formula: Ca/CA+Cb/CB=Synergy Index (“SI”) wherein: • CA=concentration of compound A (first component) in ppm, acting alone, which produced an end point (MIC of Compound A). • Ca=concentration of compound A in ppm, in the mixture, which produced an end point. • CB=concentration of compound B (second component) in ppm, acting alone, which produced an end point (MIC of Compound B). • Cb=concentration of compound B in ppm, in the mixture, which produced an end point.
# (§2) When the sum of Ca/CA and Cb/CB is greater than one, antagonism is indicated. […] The lower the SI, the greater the synergy shown by that particular mixture. The minimum inhibitory concentration (MIC) of an antimicrobial compound is the lowest concentration tested under a specific set of conditions that prevents the growth of added microorganisms.
# (§3) Synergy tests were conducted using standard microtiter plate assays with media designed for optimal growth of the test microorganism. Minimal salt medium supplemented with 0.2% glucose and 0.1% yeast extract (M9GY medium) was used for bacteria testing; Potato Dextrose Broth (PDB medium) was used for yeast and mold testing. In this method, a wide range of combinations of microbicides was tested by conducting high resolution MIC assays in the presence of various concentrations of biocides. High resolution MICs were determined by adding varying amounts of microbicide to one column of a microtitre plate and doing subsequent ten-fold dilutions using an automated liquid handling system to obtain a series of end points ranging of active ingredient. The synergy of the combinations of the present invention was determined against two bacteria, Pseudomonas aeruginosa (Ps. aeruginosa—ATCC # 9027) and Staphylococcus aureus (S. aureus—ATCC # 6538), a yeast, Candida albicans (C. albicans—ATCC # 10231), and a mold, Aspergillus niger (A. niger—ATCC 16404). The bacteria were used at a concentration of about 1-6×10^6 bacteria per mL and the yeast and mold at 1−5×10^5 fungi per mL. These microorganisms are representative of natural contaminants in many consumer and industrial applications. […] (yeast and mold) or 30° C. (bacteria).
# [2] = tested on: Aspergillus niger (A. niger—ATCC 16404); assay: as above; details: ppm AI; for MIC: Aspergillus niger, read-out: MIC of component acting alone (Ca or Cb)
# Text: as §1, §2, §3
# [3] = tested on: Pseudomonas aeruginosa (Ps. aeruginosa—ATCC # 9027); assay: Synergy test, microtiter plate high resolution MIC assay (M9GY medium); details: ppm AI; for MIC: Pseudomonas aeruginosa, read-out: MIC of component acting alone (Ca or Cb)
# Text: as §1, §2, §3
# [4] = tested on: Staphylococcus aureus (S. aureus—ATCC # 6538); assay: as above; details: ppm AI; for MIC: Staphylococcus aureus, read-out: MIC of component acting alone (Ca or Cb)
# Text: as §1, §2, §3
molecule,measurement,setting,value
"CCCCCCCCn1sc(Cl)c(Cl)c1=O [DCOIT, 4,5-dichloro-2-n-octyl-4-isothiazolin-3-one]",MIC,"[1]; ATCC10231, Table 1, contact time 48 hrs",1 µg/mL
same,MIC,"[1]; ATCC10231, Table 1, contact time 72 hrs",1 µg/mL
same,MIC,"[2]; ATCC16404, 72 h, Table 1, contact time 3 days",0.25 µg/mL
same,MIC,"[2]; ATCC16404, 72 h, Table 2, contact time 3 days",0.0875 µg/mL
same,MIC,"[2]; ATCC16404, 168 h, Table 1, contact time 7 days",0.25 µg/mL
same,MIC,"[2]; ATCC16404, 168 h, Table 2, contact time 7 days",0.2 µg/mL
same,MIC,"[3]; ATCC9027, 24 h, Table 1, contact time 24 hrs",3 µg/mL
same,MIC,"[3]; ATCC9027, 24 h, Table 2, contact time 24 hrs",2 µg/mL
same,MIC,"[3]; ATCC9027, 48 h, Table 1, contact time 48 hrs",3 µg/mL
same,MIC,"[3]; ATCC9027, 48 h, Table 2, contact time 48 hrs",4.25 µg/mL
same,MIC,"[4]; ATCC6538, 24 h, Table 1, contact time 24 hrs",0.5 µg/mL
same,MIC,"[4]; ATCC6538, 24 h, Table 2, contact time 24 hrs",0.65 µg/mL
same,MIC,"[4]; ATCC6538, 48 h, Table 1, contact time 48 hrs",0.5 µg/mL
same,MIC,"[4]; ATCC6538, 48 h, Table 2, contact time 48 hrs",0.65 µg/mL
Monoethanolamine complex of copper carbonate [Cu-MEA],MIC of component acting alone (Ca or Cb),"[1]; Table 1, contact time 48 hrs",200 ppm
same,MIC of component acting alone (Ca or Cb),"[1]; Table 1, contact time 72 hrs",200 ppm
same,MIC of component acting alone (Ca or Cb),"[2]; Table 1, contact time 3 days",300 ppm
same,MIC of component acting alone (Ca or Cb),"[2]; Table 1, contact time 7 days",300 ppm
same,MIC of component acting alone (Ca or Cb),"[3]; Table 1, contact time 24 hrs",120 ppm
same,MIC of component acting alone (Ca or Cb),"[3]; Table 1, contact time 48 hrs",120 ppm
same,MIC of component acting alone (Ca or Cb),"[4]; Table 1, contact time 24 hrs",80 ppm
same,MIC of component acting alone (Ca or Cb),"[4]; Table 1, contact time 48 hrs",200 ppm
